US12161634B2, “Pyruvate kinase R (PKR) activating compositions” (Novo Nordisk Health Care AG, priority 2020, dated 2024)

Assay: Dynamic vapor sorption (DVS)
Format: physicochemical
Conditions: for hygroscopicity: DVS at RT; for water uptake from 60% RH to 80% RH / water uptake up to 60% RH: DVS; for water uptake from 60% RH to 80% RH / water uptake up to 60% RH / form change before and after DVS test: RT; for water uptake up to 60% RH: up to 60% RH (ambient condition); for form change before and after DVS test: determined by XRPD
Experimental: Dynamic Vapor Sorption (DVS) was measured with a Surface Measurement System (SMS) DVS Intrinsic.

SMILES | hygroscopicity | water uptake from 60% RH to 80% RH | water uptake up to 60% RH | form change before and after DVS test
O=C([C@H](CO)c1ccccc1)N1CC2=C(C1)CN(S(=O)(=O)c1cnc3c(c1)OCCO3)C2 [Type B, (S)-1-(5-[2H,3H-[1,4]dioxino[2,3-b]pyridine-7-sulfonyl]-1H,2H,3H,4H,5H,6H-pyrrolo[3,4-c]pyrrol-2-yl)-3-hydroxy-2-phenylpropan-1-one] | hygroscopic | 0.4% | 2.9% | No form change
O=C([C@H](CO)c1ccccc1)N1CC2=C(C1)CN(S(=O)(=O)c1cnc3c(c1)OCCO3)C2 [Type C, (S)-1-(5-[2H,3H-[1,4]dioxino[2,3-b]pyridine-7-sulfonyl]-1H,2H,3H,4H,5H,6H-pyrrolo[3,4-c]pyrrol-2-yl)-3-hydroxy-2-phenylpropan-1-one] | hygroscopic | 0.5% | 1.8% | No form change
